Patent US11612643B2, “Col14A1-derived tumor antigen polypeptide and use thereof” (Genoimmune Therapeutics Co., Ltd., priority 2016, dated 2023)

What was measured:
T2 cells = assay: LDH release assay, killing of peptide-loaded T2 target cells by CD8+ T cells; format: cell-based, human; settings: T2 loaded with wild-type FMVDGSWSI, 4 h
Method: The cells cultured in Example 3 were co-cultured with T2 cells loaded with the mutant peptides of the present invention or the wild-type peptide or without a peptide. A maximum release well, a volume correction well, a medium control well, a spontaneous release well and control wells for example at different effector-to-target ratios (ratios of T cells to T2 cells) were set in this experiment. Three replicate wells were set for each group. After 4 h, 50 μl of the co-culture supernatant was taken out and added to 50 μl of LDH substrate mixture to catalyze the reaction of LDH substrate. Finally, the plates were read at a wavelength of 490 nm, with a reference wavelength of 680 nm, and the killing activity against target cells T2 was calculated based on the control wells.

CD8+ T cells [1] = assay: ELISPOTs detection of IFN-gamma secretion by peptide-specific CD8+ T cells; format: cell-based, human; settings: for Conclusion (immunogenicity): ELISPOTs; for Number of spots in the wild-type peptide group: T cells activated by listed peptide + T2 loaded with wild-type peptide FMVDGSWSI, 20 h
Description: In this example, a ELISPOTs detection kit (Cat. No.: 3420-4AST-10, MABTECH) was used to verify the activation of an immune response of CD8+ T cells by the peptides of the present invention.
Principle of the ELISPOTs detection method is as follows: CD8+ T cells can specifically recognize the complex of HLA-A0201 and a peptide. The population of T cells recognizing the complex of the peptide and HLA-A0201 is varying, depending on the peptide sequence. Since T2 cells express HLA-A0201, CD8+ T cells can specifically recognize the T2 cells loaded with a peptide. After specific recognition of the complex of HLA-A0201 and the peptide, peptide-specific CD8+ T cells can be activated again to secrete IFN-gamma interferon. The IFN-gamma interferon secreted by the activated CD8+ T cells can be captured by antibodies on the ELISPOTs plate. Finally, the enzyme-conjugated antibody that recognizes IFN-gamma can degrade the substrate through the enzyme conjugated thereto and develop color, eventually producing spots. The number of spots represents the number of cells that are activated to secrete IFN-gamma interferon.
The cultured cells from Example 3 were added, along with T2 cells loaded with the mutant peptide […] of the present invention and the wild-type peptide […], respectively, into ELISPOTs plates, and cultured for 20 h, and then a ELISPOTs detection was performed (see the kit instruction). Finally, the spots produced by the ELISPOTs detection were counted.
The peptide was determined to have immunogenicity when the number of spots of the tested peptide/the number of spots of an unrelated peptide>2; that is, if the number of spots caused by the tested peptide is more than twice than that of an unrelated peptide, the tested peptide is determined to have immunogenicity.

CD8+ T cells [2] = assay: as above; format: cell-based, human; settings: ratio of spot numbers; >2 immunogenic
HLA-A0201 = biological target: T1, HLA-A0201 (Homo sapiens, UniProt P04439, D140Y/D185E/D98H/E176V/E277Q/G131W/G231S/I119V/I121R/I166T/I218V/L300P/L318F/N151K/N90K/P208A/P217A/Q86G/Q94H/R138H/R169H/T345S); assay: Affinity verification of the peptides to T2 cells (flow cytometry, FITC anti-HLA-A0201); format: cell-based; settings: added peptide 100 μM, FI>1.5 high affinity for HLA-A0201, listed as wild-type peptide
T1 construct: T2 cells (a lymphocyte, tumor cell line, expressing HLA-A0201); host or cells: T2 cells (TAP-deficient T/B lymphocyte hybridoma, HLA-A2 positive)
Method: 10 μg/ml of each peptide as described above was added, and human β2 microglobulin (at a final concentration of 3 μg/ml) was added and cultured overnight in an incubator (37° C., 5% CO2). Two replicate wells were set up for each group.
Cells were collected by centrifugation of the cell culture at 200 g for 5 minutes. The collected cells were washed twice with PBS, and then directly incubated with FITC-conjugated anti-HLA-A0201 monoclonal antibody at 4° C. for 30 minutes. The mean fluorescence intensity (MFI) was then detected and analyzed by flow cytometer (BD FACSJazz™) and its software. The fluorescence index (FI) was calculated by using the following formula: FI=[MFIsample−MFIbackground]/MFIbackground;

[3] = effector-to-target ratio (10:1)

Sequence	killing activity against target cells T2 (T2 cells; effector-to-target ratio (1:1))	killing activity against target cells T2 (T2 cells; [3])	Conclusion (immunogenicity) (CD8+ T cells [1])	Number of spots in the wild-type peptide group (CD8+ T cells [1])	Fold (tested/wild-type) (CD8+ T cells [2])	FI (fluorescence index) (HLA-A0201)
FLVDGFWSI	2.65%	5.53%	immunogenic	28	11.21	
FLVDGFWSL	3.13%	6.33%	immunogenic	30	10.26	
FLVDGFWSV	3.26%	6.01%	immunogenic	31	9.71	
FMVDGFWSL	3.12%	4.91%	immunogenic	37	8.86	
FMVDGFWSV	3.37%	5.63%	immunogenic	41	7.87	
FMVDGSWSI [wild-type COL14A1 peptide used as comparator]						greater than 1.5
